Laboratory results reported in patent publication US9695154B2, “Heteroaryl inhibitors of sumo activating enzyme” (MILLENNIUM PHARMACEUTICALS, INC., priority 2013, dated 2017).

Target: T1, recombinant human SAE enzyme (Homo sapiens, UniProt Q9UBT2)
T1 sequence (Q9UBT2 1-640): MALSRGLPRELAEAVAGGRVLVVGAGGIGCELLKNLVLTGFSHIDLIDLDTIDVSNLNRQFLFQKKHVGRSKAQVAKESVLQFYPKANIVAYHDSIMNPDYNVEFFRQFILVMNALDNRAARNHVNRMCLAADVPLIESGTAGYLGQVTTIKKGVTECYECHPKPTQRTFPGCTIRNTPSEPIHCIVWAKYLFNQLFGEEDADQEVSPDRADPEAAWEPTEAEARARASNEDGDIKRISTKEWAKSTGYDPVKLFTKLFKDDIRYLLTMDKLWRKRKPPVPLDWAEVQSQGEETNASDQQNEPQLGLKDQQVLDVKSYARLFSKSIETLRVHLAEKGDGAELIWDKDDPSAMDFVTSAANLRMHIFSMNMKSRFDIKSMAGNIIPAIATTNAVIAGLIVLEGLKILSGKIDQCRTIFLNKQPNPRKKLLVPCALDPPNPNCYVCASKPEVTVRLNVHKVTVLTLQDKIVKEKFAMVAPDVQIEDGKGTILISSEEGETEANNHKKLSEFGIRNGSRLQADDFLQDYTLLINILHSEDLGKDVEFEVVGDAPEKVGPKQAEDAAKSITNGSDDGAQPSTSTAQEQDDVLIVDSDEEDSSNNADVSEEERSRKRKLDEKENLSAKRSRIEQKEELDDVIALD
T1 sequence (Q9UBE0 1-346 partner): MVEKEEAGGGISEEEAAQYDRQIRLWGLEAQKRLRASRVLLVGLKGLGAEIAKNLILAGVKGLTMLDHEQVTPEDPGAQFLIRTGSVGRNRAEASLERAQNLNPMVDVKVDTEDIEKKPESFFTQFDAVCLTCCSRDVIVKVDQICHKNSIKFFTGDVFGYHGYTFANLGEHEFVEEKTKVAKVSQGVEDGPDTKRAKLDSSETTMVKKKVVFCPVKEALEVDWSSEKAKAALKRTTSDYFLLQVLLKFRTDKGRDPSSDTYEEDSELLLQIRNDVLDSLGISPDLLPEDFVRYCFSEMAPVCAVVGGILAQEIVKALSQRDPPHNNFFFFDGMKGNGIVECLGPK
Assay: SAE HTRF Enzyme Assay
Assay type: biochemical
Conditions: for IC50: class symbols A-C; for inhibition at 0.111 µM: compound concentration 0.111 μM, read-out: Percent Inhibition
How it was run: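 Measured as FRET after a 2 h antibody step: SAE (0.11 nM) thioester transfer of Sumo-Flag to Ubc9-GST, 0.5 μM ATP, 24° C for 105 min, quenched with 20 mM EDTA. Output is IC50 or percent inhibition at a single concentration.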

SMILES | IC50 | inhibition at 0.111 µM
NS(=O)(=O)OC[C@H]1C[C@@H](Nc2ncncc2C(=O)c2ccn(CC3=CCCOC3)n2)C[C@@H]1O [Compound I-145, {(1R,2S,4R)-4-[(5-{[1-(5,6-dihydro-2H-pyran-3-ylmethyl)-1H-pyrazol-3-yl]carbonyl}pyrimidin-4-yl)amino]-2-hydroxycyclopentyl}methyl sulfamate] | 0.01 to 0.1 µM | 65%
Cc1ccn(CCn2ccc(C(=O)c3cncnc3N[C@@H]3C[C@H](COS(N)(=O)=O)[C@@H](O)[C@H]3O)n2)n1 [Compound I-4, [(1R,2R,3S,4R)-2,3-dihydroxy-4-{[5-({1-[2-(3-methyl-1H-pyrazol-1-yl)ethyl]-1H-pyrazol-3-yl}carbonyl)pyrimidin-4-yl]amino}cyclopentyl]methyl sulfamate] | 0.01 to 0.1 µM | 80%
NS(=O)(=O)OC[C@H]1C[C@@H](Nc2ncncc2C(=O)c2ccn(CC(=O)c3ccccc3)n2)[C@H](O)[C@@H]1O [Compound I-125, {(1R,2R,3S,4R)-2,3-Dihydroxy-4-[(5-{([1-(2-oxo-2-phenylethyl)-1H-pyrazol-3-yl]carbonyl}pyrimidin-4-yl)amino]cyclopentyl}methyl sulfamate] | < 0.01 µM | 99%
NS(=O)(=O)OC[C@H]1C[C@@H](Nc2ncncc2C(=O)c2ccn(Cc3cccc(C(F)(F)F)c3)n2)[C@H](O)[C@@H]1O [Compound I-119, [(1R,2R,3S,4R)-2,3-dihydroxy-4-{[5-({1-[3-(trifluoromethyl)benzyl]-1H-pyrazol-3-yl}carbonyl)pyrimidin-4-yl]amino}cyclopentyl]methyl sulfamate] | < 0.01 µM | 98%
CC#CC(C)n1ccc(C(=O)c2cncnc2N[C@@H]2C[C@H](COS(N)(=O)=O)[C@@H](O)C2)n1 (single isomer, unassigned) [Compound I-362, {(1R,2S,4R)-2-hydroxy-4-[(5-{[(1S)-1-(pent-3-yn-2-yl)-1H-pyrazol-3-yl]carbonyl}pyrimidin-4-yl)amino]cyclopentyl}methyl sulfamate or {(1R,2S,4R)-2-hydroxy-4-[(5-{[(1R)-1-(pent-3-yn-2-yl)-1H-pyrazol-3-yl]carbonyl}pyrimidin-4-yl)amino]cyclopentyl}methyl sulfamate] | 0.01 to 0.1 µM | 52%
NS(=O)(=O)OC[C@H]1C[C@@H](Nc2ncncc2C(=O)c2ccn(CC3CCCCC3)n2)C[C@@H]1O [Compound I-93, {(1R,2S,4R)-4-[(5-{[1-(cyclohexylmethyl)-1H-pyrazol-3-yl]carbonyl}pyrimidin-4-yl)amino]-2-hydroxycyclocarbonyl}methyl sulfamate] | < 0.01 µM | 90%
NS(=O)(=O)OC[C@H]1C[C@@H](Nc2ncncc2C(=O)c2ccn(Cc3ccc(Cl)c(Cl)c3)n2)[C@H](O)[C@@H]1O [Compound I-159, {(1R,2R,3S,4R)-4-[(5-{[1-(3,4-dichlorobenzyl)-1H-pyrazol-3-yl]carbonyl}pyrimidin-4-yl)amino]-2,3-dihydroxycyclopentyl}methyl sulfamate] | < 0.01 µM | 96%
Cn1cccc(Cn2ccc(C(=O)c3cncnc3N[C@@H]3C[C@H](COS(N)(=O)=O)[C@@H](O)[C@@H]3F)c2)c1=O [Compound I-216, [(1R,2R,3R,4R)-3-fluoro-2-hydroxy-4-{[5-({1-[(1-methyl-2-oxo-1,2-dihydropyridin-3-yl)methyl]-1H-pyrrol-3-yl}carbonyl)pyrimidin-4-yl]amino}cyclopentyl]methyl sulfamate] | < 0.01 µM | 97%
NS(=O)(=O)OC[C@H]1C[C@@H](Nc2ncncc2C(=O)c2ccn(Cc3cccc(C4(O)COC4)n3)n2)C[C@@H]1O [Compound I-120, [(1R,2S,4R)-2-hydroxy-4-({5-[(1-{[6-(3-hydroxyoxetan-3-yl)pyridin-2-yl]methyl) 1H pyrazol-3-yl)carbonyl]pyrimidin-4-yl}amino)cyclopentyl]methyl sulfamate] | 0.1 to 1 µM | 47%
CC#Cc1cccc(Cn2ccc(C(=O)c3cncnc3N[C@@H]3C[C@H](COS(N)(=O)=O)[C@@H](O)C3)n2)c1 [Compound I-84, [(1R,2S,4R)-2-hydroxy-4-{[5-({1-[3-(prop-1-yn-1-yl)benzyl]-1H-pyrazol-3-yl}carbonyl)pyrimidin-4-yl]amino}cyclopentyl]methyl sulfamate] | < 0.01 µM | 95%
NS(=O)(=O)OC[C@H]1C[C@@H](Nc2ncncc2C(=O)c2ccn(C3C=CCCC3)n2)C[C@@H]1O (mixture of isomers) [Compound I-302, [(1R,2S,4R)-4-{[5-({1-[(1R)-cyclohex-2-en-1-yl]-1H-pyrazol-3-yl}carbonyl)pyrimidin-4-yl]amino}-2-hydroxycyclopentyl]methyl sulfamate and [(1R,2S,4R)-4-{[5-({1-[(1S)-cyclohex-2-en-1-yl]-1H-pyrazol-3-yl}carbonyl)pyrimidin-4-yl]amino}-2-hydroxycyclopentyl]methyl sulfamate] | 0.1 to 1 µM | 34%
NS(=O)(=O)OC[C@H]1C[C@@H](Nc2ncncc2C(=O)c2ccn(CC3CCOCC3)c2)[C@@H](F)[C@@H]1O [Compound I-222, {(1R,2R,3R,4R)-3-fluoro-2-hydroxy-4-[(5-{[1-(tetrahydro-2H-pyran-4-ylmethyl)-1H-pyrrol-3-yl]carbonyl}pyrimidin-4-yl)amino]cyclopentyl}methyl sulfamate] | 0.01 to 0.1 µM | 63%
Cc1cc(C(=O)c2cncnc2N[C@@H]2C[C@H](COS(N)(=O)=O)[C@@H](O)C2)nn1C(C)c1cccc(Cl)c1 (single isomer, unassigned) [Compound I-172, [(1R,2S,4R)-4-{[5-({1-[(1R)-1-(3-chlorophenyl)ethyl]-5-methyl-1H-pyrazol-3-yl}carbonyl)pyrimidin-4-yl]amino}-2-hydroxycyclopentyl]methyl sulfamate or [(1R,2S,4R)-4-{[5-({1-[(1S)-1-(3-chlorophenyl)ethyl]-5-methyl-1H-pyrazol-3-yl}carbonyl)pyrimidin-4-yl]amino}-2-hydroxycyclopentyl]methyl sulfamate] | 0.01 to 0.1 µM | 83%
NS(=O)(=O)OC[C@H]1C[C@@H](Nc2ncncc2C(=O)c2ccn(Cc3c(F)cc(F)cc3F)n2)[C@H](O)[C@@H]1O [Compound I-88, {(1R,2R,3S,4R)-2,3-dihydroxy-4-[(5-{[1-(2,4,6-trifluorobenzyl)-1H-pyrazol-3-yl]carbonyl}pyrimidin-4-yl)amino]cyclopentyl}methyl sulfamate] | < 0.01 µM | > 99%
NS(=O)(=O)OC[C@H]1C[C@@H](Nc2ncncc2C(=O)c2ccn(Cc3cc(F)cc(Cl)c3)n2)[C@H](O)[C@@H]1O [Compound I-334, {(1R,2R,3S,4R)-4-[(5-{[1-(3-chloro-5-fluorobenzyl)-1H-pyrazol-3-yl]carbonyl}pyrimidin-4-yl)amino]-2,3-dihydroxycyclopentyl}methyl sulfamate] | < 0.01 µM | 98%
Cc1ccnc(Cn2ccc(C(=O)c3cncnc3N[C@@H]3C[C@H](COS(N)(=O)=O)[C@@H](O)[C@H]3O)n2)c1 [Compound I-51, [(1R,2R,3S,4R)-2,3-dihydroxy-4-{[5-({1-[(4-methylpyridin-2-yl)methyl]-1H-pyrazol-3-yl}carbonyl)pyrimidin-4-yl]amino}cyclopentyl]methyl sulfamate] | < 0.01 µM | 100%
NS(=O)(=O)OC[C@H]1C[C@@H](Nc2ncncc2C(=O)c2ccn(/C=C\c3ccccc3)c2)C[C@@H]1O [Compound I-200, [(1R,2S,4R)-2-Hydroxy-4-{[5-({1-[(Z)-2-phenylvinyl]-1H-pyrrol-3-yl}carbonyl)pyrimidin-4-yl]amino}cyclopentyl]methyl sulfamate] | < 0.01 µM | 98%
NS(=O)(=O)OC[C@H]1C[C@@H](Nc2ncncc2C(=O)c2ccn(Cc3cccc(OC(F)(F)F)c3)n2)[C@@H](F)[C@@H]1O [Compound I-23, [(1R,2R,3R,4R)-3-Fluoro-2-hydroxy-4-{[5-({1-[3-(trifluoromethoxy)benzyl]-1H-pyrazol-3-yl}carbonyl)pyrimidin-4-yl]amino}cyclopentyl]methyl sulfamate] | < 0.01 µM | 98%
